Measurements reported in patent US20050176091A1, “Process for producing kiss-1 peptide” (priority 2002, published 2005).
Where no end group is shown, it is not given here.

Tested on: intracellular Ca ion concentration
Assay: Biological activity assay: intracellular Ca ion concentration-increasing activity (method of Example 3 of WO 99/33976)
Type: cell-based
Settings: compared with a sample purified from human placenta extract

Substance: KiSS-1 peptide: Human KiSS-1 peptide (SEQ ID NO: 1) obtained in Example 2 by S-cyanylation and ammonolysis of a fused protein expressed in E. coli (GTSLSPPPESSGSRQQPGLSAPHSRQIPAPQGAVLVQREKDLPNYNWNSFGLRF-NH2)
- intracellular Ca ion concentration-increasing activity: equivalent to that of a sample purified from human placenta extract
